Assay results reported in patent US20260159815A1, “METHODS OF CULTURING CARDIAC CELLS AND USE OF CELLS FOR DISEASE MODELING” (Technion Research & Development Foundation Limited, priority 2023, published 2026).

Test system: iPSC-derived cardiomyocytes
Assay: RT-qPCR of selected sarcomere genes (TNNI1, TNNI3)
Assay type: cell-based, human
Settings: Torin1 10 nM and 25 nM, maturation media groups (3 mM glucose)
Protocol: Gene expression (RT-qPCR): RNA was extracted from cells using […], then reverse transcribed to cDNA with the Iscript™ cDNA Synthesis Kit (Bio-Rad, US). The quantitative polymerase chain reaction was performed using the Lightcycler® 480 SYBR Green I Master (syber green) (Roche, Switzerland).
Cardiomyocyte maturation: hiPSCs were differentiated into cardiomyocytes as follows. On day 0, the hiPSC medium was replaced with CDM3 media supplemented with 6 μM CHIR99021 (R&D Systems, US) to induce differentiation toward a mesodermal fate. After 48 hours the same medium was use, supplemented with 2 μM of Wnt-C59 (Selleck Chemicals, US). After 48 hours, the medium was replaced with RPMI-B27-insulin (Thermo Fisher Scientific, US). On day 10, maturation process was started with the replacement of the medium with maturation media. This process continued for 14 days during which Torin1 was added only in the first 7 days. At the end of the process, several criteria were tested to characterize the maturation of the CMs and the other supporting cells. […]

CCC(=O)N1CCN(c2ccc(-n3c(=O)ccc4cnc5ccc(-c6cnc7ccccc7c6)cc5c43)cc2C(F)(F)F)CC1 [Torin1]
TNNI3 mRNA expression: trended toward increased expression of TNNI3 mRNA expression in a dose-dependent manner
